In patent US12268670B2, “Combination of small molecule CD-47 inhibitors with other anti-cancer agents” (Aurigene Oncology Limited, priority 2018, dated 2025):
Marks after values point to notes of the source that are not given here.

Key:
[1] = test system: H929 (multiple myeloma cell line) cells; assay: Human macrophage phagocytosis assay in combination with bortezomib; type: cell-based; details: H929 cells treated with 10 nM bortezomib for 48 hrs, compared with compound alone; FIG. 2
Protocol: In vitro phagocytosis assay was performed to evaluate the ability of test item to enhance the phagocytic activity of macrophages. Monocytes were isolated from blood of healthy donors and cultured for 6-8 days using complete RPMI (Roswell Park Memorial Institute) supplemented with 20 ng/mL recombinant human M-CSF to differentiate them into macrophages. Media was changed every alternate day. Simultaneously H929 cells were cultured in complete RPMI media and treated with 10 nM bortezomib for 48 hrs. Macrophages were starved for 2 hrs in serum free RPMI.CFSE stained, Bortezomib treated/untreated H929 (multiple myeloma cell line) cells were seeded at a density of 0.2×10^6 cells/well in 96-well low attachment plate and treated with anti-human CD47 purified B6H12 (5 μg/mL)/Mouse IgG1 K Isotype Control antibody (5 μg/mL)/different concentrations of selected compounds of the present invention in serum free media for 30 min at 37° C. Serum starved macrophages were added to H929 cells at a ratio of 1:4 (macrophages:H929 cells) and incubated for 2 hours at 37° C. Cells in each well were stained with anti-human CD11b APC for 30 minutes at 4° C. in dark followed by fixation and FACS analysis. Cells positive for FITC and APC were considered as H929 cells phagocytosed by macrophages. Data acquired using FACS verse was analysed using Flow Jo software.

[2] = test system: luciferase expressing Raji (lymphoma cell line) cells; assay: Luciferase based phagocytosis assay (macrophages, combination with anti-human CD20 antibody); type: cell-based; details: in combination with anti-human CD20 antibody, compared with compound alone; FIG. 1
Protocol: In vitro phagocytosis assay was performed to evaluate the ability of test item to enhance the phagocytic activity of macrophages. Monocytes were isolated from blood of healthy donor and cultured for 6-8 days using 10% RPMI (Roswell Park Memorial Institute) media and recombinant human M-CSF to differentiate into macrophages. Media was changed every alternate day. After differentiation, adherent macrophages were collected by gentle scraping and cultured in 10% RPMI overnight at a density of 0.1 million per well in 48 well tissue culture plate. Simultaneously, luciferase expressing Raji (lymphoma cell line) cells were cultured in 10% RPMI media with 100 μg/mL of hygromycin B in tissue culture flask. On the day of phagocytosis, macrophages were serum starved for 2 hours. 0.4 million luciferase expressing Raji cells per well were incubated with anti-human CD47 antibody or Mouse IgG1 K Isotype Control antibody or various concentrations of selected compounds of the present invention alone or in combination with anti-human CD20 antibody in serum free media for 30 min at 37° C. and added into respective well of the 48 well plate seeded with macrophages. […] Luminescence reading was taken using plate reader after transferring the content of each well to white plate. Intensity of luminescence indicated the extent of phagocytosis. […]

[3] = test system: A20 syngeneic lymphoma model; assay: Efficacy study in A20 syngeneic lymphoma model; type: in vivo, Balb/c mice
Source text: Female Balb/c (BALB/cAnNTac) mice (6-8 weeks-old) bred in-house were used in this efficacy study in the A20 syngeneic lymphoma model. The animals were marked individually with tail marks and kept in cages that were identified by a cage card showing the study code, date of experimentation, sex and number of animals. During the experiment, the animals were weighed daily. A20 cell line (B-cell lymphoma line derived from a spontaneous reticulum cell neoplasm found in an old BALB/cAnN mouse) was procured from ATCC.
When the mean tumor volumes reached approximately 75 mm^3, the animals were randomized based on tumor volumes into four groups (G1 to G4) of twelve animals (N=12) each and dosed with vehicle, Compound 6, anti-mouse PD-L1 antibody and the combination of Compound 6 and anti-mouse PD-L1 antibody as mentioned below:
The treatment was continued for a period of 21 days, during which the overall efficacy and tolerability were evaluated based on tumor volume and body weight changes observed during the treatment period.
Individual animal body weights were recorded daily before the administration of Compound 6 throughout the experimental period. […] The tumor volumes were measured in all treatment group animals thrice a week (once every 2-3 days) using a digital Vernier callipers. From an ethical viewpoint, any treatment/control group with a mean tumor weight in excess of 10% of animal body weight were humanely sacrificed. As a measure of efficacy, the % T (treatment)/C(control) and % TGI (% Tumor growth inhibition) values were calculated. Graphs and statistical analysis were performed using GraphPad Prism®, Version 7.0. For analysis of tumor volume data, statistical comparison was done on Day 18 for all groups using One-way ANOVA with Dunnett's multiple comparison test. All analyses and comparisons was evaluated at the 5% (p<0.05) level. A “p” value less than 0.05 was considered as significant.

SMILES | phagocytosis of multiple myeloma cells (FACS, FITC and APC positive cells) [1] | phagocytosis of lymphoma cells (luminescence intensity) [2] | % TGI ([3]; A20 tumor bearing Balb/c mice, Compound 6 30 mg/kg bid oral, anti-mouse PD-L1 antibody 200 μg/animal i.p. Day 1, 3, 6, 9, statistics on Day 18) | tolerability (clinical signs, mortality) ([3]; Compound 6 30 mg/kg bid, single agent or in combination with PD-L1 antibody, 21 days) | tumor growth inhibition (TGI) ([3]; at the end of treatment period (21 days), Compound 6 30 mg/kg, A20 tumor bearing mice) [%]
N=C(N)NCCC[C@H](NC(=O)N1CCCC1C(=O)O)c1nc([C@@H](N)CCC(=O)O)no1 (stereo partly shown) [Compound 3] | Enhanced phagocytosis | Enhanced phagocytosis |  |  | 
NC(=O)CC[C@H](N)c1noc(CNC(=O)N2CCCC2C(=O)O)n1 (stereo partly shown) [Compound 6] | Enhanced phagocytosis | Enhanced phagocytosis | 72* % | well tolerated without any treatment related clinical signs and mortality | 72
